Experiments:
Format in all cases: cell-based
human hepatoma cells HTC = experiment: Differential uptake in rat hepatocytes and human hepatoma cells HTC, time course; settings: substrate 1.3 mM, 37° C. in EBSS
Method: This experiment has been carried out as follows:
Rat hepatocytes were cultured in M199 medium supplemented with 2 mg/ml bovine serum albumin (BSA), 3.6 mg/ml Hepes, 100 U/ml penicillin, 100 U/μg streptomycin, and 10 nmol/insulin; HTC cells were cultured in RPMI 1640 medium supplemented with 10% foetal bovine serum, 100 U/ml penicillin and 100 U/μg streptomycin.
The uptake experiments were performed in 5 ml EBSS, Earl's Balanced Salt Solution, (CaCl2 0.266 g/l; KCl 0.4 g/l; NaCl 6.8 g/l; glucose 1 g/l; MgSO4 0.204 g/l; NaH2PO4 0.144 g/l; NaHCO3 2.2 g/l).
[…] The substrate concentration was for both cell lines 1.3 mM.

[1] = system: panel of cancer cell lines; experiment: Uptake in a panel of cancer cell lines compared with healthy hepatocytes, compound of Example 3; settings: substrate 5.1 mM; after 2 hours; FIG. 3
Method: The substrate concentration was 5.1 mM and the uptake was measured after 2 hours from the administration of the test compound.

[2] = system: human hepatoma cells HepG2; experiment: Differential uptake in hepatocytes and hepatoma cell lines HepG2, EBSS without glucose, compound of Example 3; settings: substrate 5.1 mM, time course, FIG. 2
Method: The cells were cultured as in Example 12 above. The uptake experiments were performed in 5 ml EBSS without glucose to avoid competition between this compound and the test compound.
The substrate concentration was 5.1 mM and a time course analysis was done.

Row | uptake by the human hepatoma cells HTC relative to the one in hepatocytes (human hepatoma cells HTC; after 0.5 hour) | uptake by the human hepatoma cells HTC relative to the one in hepatocytes (human hepatoma cells HTC; after six hours) | uptake by the human hepatoma cells HTC relative to the one in hepatocytes (human hepatoma cells HTC; at 2 hours) | uptake of Gd in cancer cell lines compared with healthy hepatocytes [1] | uptake in human hepatoma cells HepG2 compared with hepatocyte [2] | Substance
1 | ⅓ | more than 4 times | more than 3 times | – | – | Gadolinium Complex of [4-(1,6,10-triazaundecan)-phenyl-aminocarbonylmethyl]-1,4,7,10-tetraazacyclododecan-4,7,10-triacetic acid [Example 11]
2 | – | – | – | increased in all the cancer cell lines | higher uptake | Gadolinium Complex of 3,6,9-triaza-3,6,9-tricarboxymethylundecanoic acid bis-glucopyranosylamide [Example 3]

— patent US8961927B2, “Agents for magnetic imaging method” (Bracco Imaging S.p.A., priority 2002, dated 2015)
